Data reported in patent publication US4588718A, “Carboxy containing ester prodrugs of corticosteroids” (The Upjohn Company, priority 1984, dated 1986).

Legend:
physchem = type: physicochemical; details: water, pH 4.8, water
Description: The compounds of this invention tend to be free flowing non-hygroscopic crystalline solids when in the acid form. While the aqueous solubility of these prodrugs is limited at very low pH values, these compounds become very soluble at pH values around 5 or higher. In this pH range the prodrugs self-associate to form micellar solutions.

[1] = type: physicochemical; details: for t 90% (time for 10% hydrolysis): 25° C., dilute aqueous solution, at the pH of optimum stability (Example 1: pH 4.7; Example 2: pH 4.6)
Method: The most important reaction affecting shelf-life is hydrolysis of the ester or carbonate linkage. From the hydrolysis rate constants determined at 25° C. at various pH values for dilute aqueous solutions of the compounds of this invention, estimates of ^t 90% (time for 10% hydrolysis) may be calculated. Such values, calculated at the pH of optimum stability, for the compounds of Examples 1 and 2 are listed in Table I. The actual shelf-life of formulations of the above compounds would be expected to differ from the above estimates for several reasons. (1) The solubility of the parent corticosteroid formed on hydrolysis may be exceeded prior to 10% degradation of the ester. Micelle formation by the intact prodrugs results in solubilization of free corticosteroid thereby prolonging shelf-life. The degree of solubilization varies with the ester concentration, nature of the pro-moiety, and the structure of the corticosteroid. (2) Other degradation reactions besides hydrolysis may be expected to occur. These should in general be diminished due to micelle formation and can in some cases be controlled by the addition of chelating agents, antioxidants, etc. (3) Micelle formation in concentrated solutions also results in stabilization of the ester linkage toward base catalyzed hydrolysis. For example, the base catalyzed hydrolysis rate constant in a 0.267M solution of the compound of Example 1 is less than 20% the rate constant in a 5×10^-4 M solution.

[2] = Bioconversion to the parent steroid in vivo (blood levels of test compound and parent steroid); details: four female monkeys, dose equivalent to 7.5 mg/kg, injection, blood samples 0 to 8 hours; compared with methylprednisolone hemisuccinate
Method: Since the compounds of Formula I are prodrugs of the parent corticosteroids, their efficacy depends on bioconversion to liberate the free corticoid in vivo. […] Four female monkeys having synchronized menstrual cycles were given on separate days three days apart doses of the compound of Examples 1 and 2 and methylprednisolone hemisuccinate equivalent to 7.5 mg/kg. Prior to dosing the monkeys were fasted overnight and each was anesthetized during dosing. A few mls of 0.01μ ion strength pH 5 sodium acetate buffer was added to the test compound and 1N sodium hydroxide was added slowly with rapid stirring until all the solids went into solution just prior to injection. Blood samples were withdrawn at times 0, 1/12, 1/4, 1, 2, 4 and 8 hours from administration of test compound and levels of test compound and parent steroid were measured.

For `C[C@H]1C[C@@H]2[C@H]([C@@H](O)C[C@@]3(C)[C@H]2CC[C@]3(O)C(=O)COC(=O)CCCCCS(=O)(=O)CC(=O)O)[C@@]2(C)C=CC(=O)C=C12` [Example 1, methylprednisolone, 21-[6'-(carboxymethylsulfonyl)hexanoate]], the solubility (physchem) was greater than 160 mg/mL, the “pH of optimum stability” value [1] was 4.7 and the “base catalyzed hydrolysis rate constant in a 0.267M solution relative to the rate constant in a 5×10^-4 M solution” value ([1]; 0.267M vs 5×10^-4 M solution) was “less than 20%”. For the same compound, the “t 90% (time for 10% hydrolysis)” value [1] was 2.0 years and the “conversion to the parent steroid (methylprednisolone) in vivo” value [2] was “to at least the same extent as was methylprednisolone hemisuccinate”.

For `C[C@H]1C[C@@H]2[C@H]([C@@H](O)C[C@@]3(C)[C@H]2CC[C@]3(O)C(=O)COC(=O)CCCCC[S+]([O-])CC(=O)O)[C@@]2(C)C=CC(=O)C=C12` (some centres unmarked) [Example 2, methylprednisolone-21-[6'-(carboxymethylsulfinyl)hexanoate]], the “pH of optimum stability” value [1] was 4.6, the “t 90% (time for 10% hydrolysis)” value [1] was 0.93 years and the “conversion to the parent steroid (methylprednisolone) in vivo” value [2] was “to at least the same extent as was methylprednisolone hemisuccinate”.
